Values of other authors in patent publication US6663884B2, “Method of detoxifying the egg of puffer fish for creating healthy foodstuffs and the resulting product” (priority 2002, dated 2003).

NC1=N[C@H](O)[C@H]2[C@H]3O[C@]4(O)O[C@@H]([C@@H](O)[C@@]2(N1)[C@@H]4O)[C@]3(O)CO [tetrodotoxin]
solubility in water: soluble in water
